For one test, the target named is hA2b/CHO (Homo sapiens (Human), UniProt P29275). Put plainly: cAMP inhibition assay in hA2b/CHO cells, 10 μM adenosine.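 Further: cells exposed to compound 30 min at 37 °C, then stimulated with adenosine a further 30 min, cAMP read after 60 min at room temperature.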 Type of test: cell-based. The conditions noted are these: read-out: cAMP & FLIPR IC50 (nM) hA2b.
For the next test, the target named is hA2a/CHO (Homo sapiens (Human), UniProt P29274). The test is described as follows: cAMP inhibition assay in hA2a/CHO cells, 10 μM adenosine.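 Further: compounds added to cells 30 min ahead of adenosine, then a further 30 min at 37 °C with adenosine before cAMP detection.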 The conditions noted are these: read-out: cAMP & FLIPR IC50 (nM) hA2a. Type of test: cell-based.
hA2a/CHO, sequence (P29274 whole entry): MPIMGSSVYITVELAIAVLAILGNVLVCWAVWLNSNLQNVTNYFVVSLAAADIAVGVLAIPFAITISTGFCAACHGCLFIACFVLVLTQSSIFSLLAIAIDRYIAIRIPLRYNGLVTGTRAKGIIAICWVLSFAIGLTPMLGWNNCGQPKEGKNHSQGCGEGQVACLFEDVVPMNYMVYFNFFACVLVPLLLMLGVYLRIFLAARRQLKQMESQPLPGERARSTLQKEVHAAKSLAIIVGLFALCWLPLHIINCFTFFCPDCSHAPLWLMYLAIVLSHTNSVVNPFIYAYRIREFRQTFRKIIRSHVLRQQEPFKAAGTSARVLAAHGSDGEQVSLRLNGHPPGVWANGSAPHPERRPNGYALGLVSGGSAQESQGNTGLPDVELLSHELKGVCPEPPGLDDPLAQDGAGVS
A further test addresses hA2a (Homo sapiens (Human), UniProt P29274). Put plainly: Radioligand binding to hA2a membrane with [3H]-CGS21680. An excerpt: The empty boxes in the tables below indicate data not collected yet.
The target of another test is mA2a/CHO (Mus musculus (Mouse), UniProt Q60613). The test is described as follows: cAMP inhibition assay in mA2a/CHO cells, 10 μM adenosine.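 Further: compounds preincubated 30 min at 37 °C before the adenosine challenge, then 30 min further stimulation, readout after 60 min detection reagent incubation at room temperature in 384-well plates.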 Type of test: cell-based. As to conditions: read-out: cAMP & FLIPR IC50 (nM) mA2a.
mA2a/CHO, sequence (Q60613 whole entry): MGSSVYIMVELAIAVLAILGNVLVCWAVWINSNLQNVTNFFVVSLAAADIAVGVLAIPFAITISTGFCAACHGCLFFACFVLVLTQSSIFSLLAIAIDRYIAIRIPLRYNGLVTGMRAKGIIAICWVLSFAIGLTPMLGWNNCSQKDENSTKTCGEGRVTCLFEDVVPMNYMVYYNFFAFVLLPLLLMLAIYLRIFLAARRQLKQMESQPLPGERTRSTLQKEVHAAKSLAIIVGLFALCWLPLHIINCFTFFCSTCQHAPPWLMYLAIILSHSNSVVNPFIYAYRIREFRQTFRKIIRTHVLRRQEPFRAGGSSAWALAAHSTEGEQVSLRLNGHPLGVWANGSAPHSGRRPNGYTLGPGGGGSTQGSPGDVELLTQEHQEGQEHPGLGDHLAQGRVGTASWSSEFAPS
The target of test [1] is hADORA1/CHO (hA1 expressing) cells (Homo sapiens (Human), UniProt P30542). Put plainly: cell-based. The conditions noted are these: FLIPR inhibition, 10 μM adenosine, read-out: cAMP & FLIPR IC50 (nM) hA1.
hADORA1/CHO (hA1 expressing) cells, sequence (P30542 whole entry): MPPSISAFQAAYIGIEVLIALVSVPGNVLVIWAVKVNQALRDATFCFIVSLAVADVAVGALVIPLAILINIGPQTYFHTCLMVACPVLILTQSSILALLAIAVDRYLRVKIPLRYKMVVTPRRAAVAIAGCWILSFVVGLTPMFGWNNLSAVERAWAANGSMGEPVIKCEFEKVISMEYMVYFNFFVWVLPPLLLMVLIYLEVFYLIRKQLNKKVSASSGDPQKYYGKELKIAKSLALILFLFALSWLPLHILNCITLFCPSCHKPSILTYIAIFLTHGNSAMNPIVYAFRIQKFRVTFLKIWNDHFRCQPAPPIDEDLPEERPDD
Another test deals with hA3/CHO (Homo sapiens (Human), UniProt P0DMS8). Put plainly: cell-based. The protocol:
hA2a/CHO, hA2b/CHO, hA3/CHO and mA2a/CHO (Genscript) were plated at 5×10^3 cells/well into 384-well polystyrene plates at the day of experiment. Compounds were pre-incubated with cells for 30 min at 37° C., 5% CO2. Then 10 μM adenosine was added to the cells and incubated for 30 min at 37° C., 5% CO2. Detection reagent (CISBIO) was added and the plates were incubated for 60 min at room temperature. The signal was captured by Envision.

[2] abbreviates: Binding Affinity (IC50 nM) hA2a.
[3] abbreviates: read-out: Binding Affinity (IC50 nM) hA2a.

Like-named read-outs stand apart in the source and are kept apart here.

hA2b/CHO, sequence (P29275 whole entry): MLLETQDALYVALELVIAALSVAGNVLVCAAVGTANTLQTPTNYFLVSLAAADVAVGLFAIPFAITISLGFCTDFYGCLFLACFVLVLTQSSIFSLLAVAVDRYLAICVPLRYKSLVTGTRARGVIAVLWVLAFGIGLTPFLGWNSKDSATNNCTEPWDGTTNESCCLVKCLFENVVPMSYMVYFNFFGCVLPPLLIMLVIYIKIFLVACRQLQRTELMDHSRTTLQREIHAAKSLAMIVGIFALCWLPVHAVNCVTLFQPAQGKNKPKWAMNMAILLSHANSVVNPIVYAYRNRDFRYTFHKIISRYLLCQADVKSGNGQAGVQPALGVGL
hA3/CHO, sequence (P0DMS8 whole entry): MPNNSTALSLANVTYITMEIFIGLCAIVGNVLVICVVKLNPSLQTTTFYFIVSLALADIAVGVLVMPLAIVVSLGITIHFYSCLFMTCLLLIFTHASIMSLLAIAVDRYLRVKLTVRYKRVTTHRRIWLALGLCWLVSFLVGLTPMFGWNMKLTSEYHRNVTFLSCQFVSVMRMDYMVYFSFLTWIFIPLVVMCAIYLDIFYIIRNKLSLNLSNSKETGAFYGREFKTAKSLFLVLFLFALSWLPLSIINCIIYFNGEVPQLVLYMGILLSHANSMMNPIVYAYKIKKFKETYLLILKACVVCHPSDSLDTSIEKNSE
hA2a, sequence (P29274 whole entry): as the sequence (P29274 whole entry) above

For the compound `CC(NC(=O)c1nc(-c2ccc(=O)n(C)c2)c(-c2ncco2)nc1N)c1c(F)cccc1F` (single isomer, unassigned) [Example 40, 3-amino-N-(1-(2,6-difluorophenyl)ethyl)-6-(1-methyl-6-oxo-1,6-dihydropyridin-3-yl)-5-(oxazol-2-yl)pyrazine-2-carboxamide], the IC50 came to 1350 nM on hA2b/CHO; 51 nM on hA2a/CHO; 5.2 nM at hA2a (setting [2]); 211 nM at mA2a/CHO; 10000 nM in test [1].
As for `Cc1cnc2ccc(-c3nc(C(=O)NCC4CCO4)c(N)nc3-c3ncco3)cn12` (single isomer, unassigned) [Example 134], the 50% inhibitory concentration (IC50) stood at 314 nM at hA2b/CHO, 4.3 nM on hA2a/CHO, 5.5 nM at hA2a (setting [2]) and 77 nM on mA2a/CHO.
The corresponding values for `Cc1cnc2ccc(-c3nc(C(=O)NCC4CCO4)c(N)nc3-c3ncco3)cn12` (single isomer, unassigned) [Example 135] are 182 nM, 2.3 nM, 2 nM and 23 nM.
With `Cc1cc(-c2nc(C(=O)NCc3cccc(N(C)C)n3)c(N)nc2-c2ccc(F)cc2)cc(C)n1` [Example 9, 3-amino-N-[[6-(dimethylamino)pyridin-2-yl]methyl]-6-(2,6-dimethylpyridin-4-yl)-5-(4-fluorophenyl)pyrazine-2-carboxamide], the IC50 on hA2b/CHO is at least 10000 nM; at hA2a/CHO, 5.4 nM; against hA3/CHO it was at least 10000 nM; on mA2a/CHO, 25 nM; in test [1], 1000 nM.
Regarding `Cc1cc(-c2nc(C(=O)NCc3c(F)cccc3F)c(N)nc2-c2ncco2)ccn1` [Example 10, 3-amino-N-(2,6-difluorobenzyl)-6-(2-methylpyridin-4-yl)-5-(oxazol-2-yl) pyrazine-2-carboxamide], the IC50 is 17 nM on hA2b/CHO; 17 nM on hA2a/CHO; at least 10000 nM against hA3/CHO; 41 nM at mA2a/CHO; 58 nM in test [1].
For `Cn1cc(-c2nc(C(=O)NCc3ncccc3C(F)(F)F)c(N)nc2-c2ncco2)ccc1=O` [Example 11, 3-amino-6-(1-methyl-6-oxo-1,6-dihydropyridin-3-yl)-5-(oxazol-2-yl)-N-((3-(trifluoromethyl)pyridin-2-yl)methyl)pyrazine-2-carboxamide], the IC50 is 1010 nM on hA2b/CHO; 89 nM at hA2a/CHO; at least 10000 nM at hA3/CHO; 87 nM on mA2a/CHO; 4490 nM in test [1].
As to `Cc1cc(-c2nc(C(=O)NCc3cccc(N(C)C)n3)c(N)nc2-c2ccc(F)cc2)ccn1` [Example 12, 3-amino-N-((6-(dimethylamino)pyridin-2-yl)methyl)-5-(4-fluorophenyl)-6-(2-methylpyridin-4-yl)pyrazine-2-carboxamide], the IC50 on hA2b/CHO was found to be 9030 nM; on hA2a/CHO it was 36 nM; against hA3/CHO, 6940 nM; at mA2a/CHO, 678 nM; in test [1], 414 nM.
Take `CN(C)c1cccc(CNC(=O)c2nc(-c3ccc(=O)n(C)c3)c(-c3ccc(F)cc3)nc2N)n1` [Example 13, 3-amino-N-[[6-(dimethylamino)pyridin-2-yl]methyl]-5-(4-fluorophenyl)-6-(1-methyl-6-oxo-1,6-dihydropyridin-3-yl)pyrazine-2-carboxamide]: the IC50 at hA2b/CHO was 4640 nM; at hA2a/CHO it was 6.1 nM; against hA3/CHO, at least 10000 nM; on mA2a/CHO it was 51 nM; in test [1], 72 nM.
The corresponding values for `CC(NC(=O)c1nc(-c2ccc(=O)n(C)c2)c(-c2ncco2)nc1N)c1c(F)cccc1F` (stereo not drawn) [Example 20, 3-amino-N-(1-(2,6-difluorophenyl)ethyl)-6-(1-methyl-6-oxo-1,6-dihydropyridin-3-yl)-5-(oxazol-2-yl) pyrazine-2-carboxamide] are 3600 nM, 41 nM, at least 10000 nM, 170 nM and 6610 nM.
For `CN(C)c1ccnc(CNC(=O)c2nc(-c3ccc(=O)n(C)c3)c(-c3ncco3)nc2N)n1` [Example 25, 3-amino-N-((4-(dimethylamino)pyrimidin-2-yl)methyl)-6-(1-methyl-6-oxo-1,6-dihydropyridin-3-yl)-5-(oxazol-2-yl)pyrazine-2-carboxamide], the IC50 on hA2b/CHO was at least 10000 nM; at hA2a/CHO, 125 nM; against hA3/CHO, at least 10000 nM; on mA2a/CHO it was 242 nM; in test [1], 3300 nM.
Regarding `Cn1cc(-c2nc(C(=O)NCc3cccc(N4CCC4)n3)c(N)nc2-c2ncco2)ccc1=O` [Example 26, 3-amino-N-[[6-(azetidin-1-yl)pyridin-2-yl]methyl]-6-(1-methyl-6-oxo-1,6-dihydropyridin-3-yl)-5-(1,3-oxazol-2-yl)pyrazine-2-carboxamide], the IC50 at hA2b/CHO was at least 10000 nM; at hA2a/CHO it was 108 nM; at hA3/CHO, at least 10000 nM; on mA2a/CHO, 309 nM; in test [1] it was 725 nM.
`Cn1nc(-c2nc(C(=O)NCc3c(F)cccc3F)c(N)nc2-c2ncco2)ccc1=O` [Example 37, 3-amino-N-(2,6-difluorobenzyl)-6-(1-methyl-6-oxo-1,6-dihydropyridazin-3-yl)-5-(oxazol-2-yl)pyrazine-2-carboxamide]: the IC50 on hA2b/CHO came out at 95 nM; on hA2a/CHO, 9.3 nM; on hA2a (setting [3]), 1 nM; on mA2a/CHO it was 56 nM; in test [1], 28 nM.
With `Nc1nc(-c2ncco2)c(-c2ccc(=O)n(CCO)c2)nc1C(=O)NCc1c(F)cccc1F` [Example 41, 3-amino-N-(2,6-difluorobenzyl)-6-(1-(2-hydroxyethyl)-6-oxo-1,6-dihydropyridin-3-yl)-5-(oxazol-2-yl)pyrazine-2-carboxamide], the IC50 is 38 nM at hA2b/CHO; 1.6 nM on hA2a/CHO; 3.3 nM at hA2a (setting [3]); 13 nM at mA2a/CHO; 123 nM in test [1].
As for `Cc1cnc2ccc(-c3nc(C(=O)NCCN(C)c4ccccc4)c(N)nc3-c3ncco3)cn12` [Example 244, 3-amino-N-(2-(methyl(phenyl)amino)ethyl)-6-(3-methylimidazo[1,2-a]pyridin-6-yl)-5-(oxazol-2-yl)pyrazine-2-carboxamide], the IC50 was determined as 157 nM on hA2b/CHO, 16 nM at hA2a/CHO, 31 nM on mA2a/CHO and 260 nM in test [1].
The like results for `Cc1cnc2ccc(-c3nc(C(=O)NC4CC4)c(N)nc3-c3ncco3)cn12` [Example 245, 3-amino-N-cyclopropyl-6-(3-methylimidazo[1,2-a]pyridin-6-yl)-5-(oxazol-2-yl)pyrazine-2-carboxamide] were, in that order, 247 nM, 3.8 nM, 39 nM and 87 nM.
Consider `COC1CCC(NC(=O)c2nc(-c3ccc4ncc(C)n4c3)c(-c3ncco3)nc2N)CC1` (stereo not drawn) [Example 249, 3-amino-N-(4-methoxycyclohexyl)-6-(3-methylimidazo[1,2-a]pyridin-6-yl)-5-(oxazol-2-yl)pyrazine-2-carboxamide], for which the IC50 at hA2b/CHO is 423 nM; on hA2a/CHO it was 5.7 nM; on mA2a/CHO, 50 nM; in test [1] it was above 10000 nM.
